Where two headings read alike, the source gives them in different places.
Tests used:
mouse ATX = mouse ATX (Mus musculus, UniProt Q9R1E6); assay: Amplex Red activity assay (ATX inhibition, LPC hydrolysis); type: biochemical
Method: (§1) In a similar approach to TOOS Activity Assay, this widely used method detects the ATX ability to hydrolyze LPC using a test that monitors choline release using Amplex Red fluorescent reagent (10 mM), choline oxidase (0.2 U/mL) and Radish Peroxidase (HRP - 2 U/mL). All reactions were conducted with 2 nM pure ATX and 50 µM LPC (16:0 or 18:0) at 37 °C. Inhibitors (3 mM) were dissolved in dimethyl sulfoxide (DMSO) at concentrations from 0.001 to 5 µmol/L. Fluorescence values were measured on a fluorescent plate reader (Tecan Infinite 200). IC50 values were determined using the values from two independent experiments, using the sigmoid dose-response curve (PrismH software) from the equation f = y0 + a / (1 + exp (- (x-x0) / b) given from SigmaPlot 11.0.
(§2) Subsequently, 50 µL of a buffer solution containing 200 µM LPC 16:0 (final concentration 50 µM) were added to the reaction mixture followed by incubation for another 30 minutes at 37 °C. Finally, 50 µL of working solution containing 200 µM Amplex Red reagent and choline oxidase (0.2 U/mL) κα ? HRP (2 U/mL), in 50 mM Tris-HCl at pH 8.0 and 5 mM CaCl2, was added to begin the reaction. The reaction was monitored at 37 °C, in a fluorescence plate reader (Tecan Infinite 200) using excitation at 530 nm and reading at 590 nm, every five minutes for 30 minutes at 37°C. The IC50 value was calculated from two independent experiments, using the sigmoid dose-response curve (PrismH software) from the equation f=y0+a/(1+exp(-(x-x0)/b) given from SigmaPlot 11.0.
as §2, with “was” for “were”, “Finally, 50 µL of working solution containing 200 µM Amplex Red reagent and choline oxidase (0.2 U/mL) κα ? HRP (2 U/mL), in 50 mM Tris-HCl at pH 8.0 and 5 mM CaCl2, was added to begin the reaction.” left out

human ATX = human ATX (Homo sapiens, UniProt Q13822); assay: as above; type: biochemical
Method: as §1, §2
as §2, with “was” for “were”
as §2, with “was” for “were”, “Finally, 50 µL of working solution containing 200 µM Amplex Red reagent and choline oxidase (0.2 U/mL) κα ? HRP (2 U/mL), in 50 mM Tris-HCl at pH 8.0 and 5 mM CaCl2, was added to begin the reaction.” left out
as §2, with “was” for “were”, “Finally, 50 µL of working solution containing 200 µM Amplex Red reagent and choline oxidase (0.2 U/mL) κα ? HRP (2 U/mL), in 50 mM Tris-HCl at pH 8.0 and 5 mM CaCl2, was added to begin the reaction.” left out

[1] = ATX final concentration 2 nM, LPC 16:0 50 µM, 37 °C, two independent experiments, read-out: IC50 value for the inhibition of mouse ATX
[2] = human ATX final concentration 1 nM, LPC 16:0 50 µM, 37 °C, two independent experiments, read-out: IC50 value for human ATX inhibition

SMILES | IC50 (mouse ATX; [1]) | IC50 (human ATX; [2]) | further results
O=C(Nc1c2c(nn1-c1ccc(Br)cc1)CSC2)c1cccc2ccccc12 [A4] | 12.7 µM | 3.5 µM | –
O=C(Nc1c2c(nn1-c1cnccn1)CSC2)c1cccc2ccccc12 [A14] | 2.5 µM | 1.3 µM | –
O=C(O)c1ccc(-n2nc3c(c2NC(=O)c2cccc4ccccc24)CSC3)cc1 [A15] | – | – | IC50 (mouse ATX; mATX 2 nM (values without asterisk), read-out: IC50 (µM) (in mATX 2 nM)): 59.3 µM
O=C(Nc1c2c(nn1-c1ccncc1)CSC2)c1cccc2ccccc12 [A16] | – | 7.5 µM | –
COC(C(=O)Nc1c2c(nn1-c1ccc(Br)cc1)CSC2)(c1ccccc1)C(F)(F)F (centres unmarked) [A17] | – | 2 µM | –
O=C(Nc1c2c(nn1-c1ccc(Br)cc1)CSC2)c1cc(Cl)cc(Cl)c1 [A18] | – | – | IC50 (human ATX; values marked *: evaluation performed in human ATX (hATX) 1 nM, read-out: IC50 (µM) (in mATX 2 nM)): 2.5 µM
